Here are results for two molecules from paper PMC7732025 (Archives of pharmacal research, 2013).

A value given as a limit tells only on which side of the number the result lay.

Data set [1] in a line: Cytotoxic assay, primary human PBM cells. The class given is cell-based. Conditions: human, primary human PBM cells.
The test system of another data set is primary human PBM cells. Put plainly: Cytotoxic assay, primary human PBM cells. In kind it is cell-based. The note with it: primary human PBM cells (lymphocytes).
The test system of another data set is VERO cells. The data set can be described thus: Cytotoxic assay, VERO cells. The class given is cell-based.
Data set [2] can be described thus: Cytotoxic assay, VERO cells. The class given is cell-based. Conditions: African green monkey.
Another data set in a line: in vitro. Conditions: human, CEM cells.

Consider `CC(=NNC(=O)CN1c2c(-c3ccccc3)n[nH]c2-c2ccccc2S1(=O)=O)c1sc(N)nc1C` [5h, N′-(1-(2-amino-4-methylthiazol-5-yl)ethylidene)-2-(5,5-dioxido-3-phenylbenzo[e]pyrazolo[4,3-c][1,2]thiazin-4(1H)-yl)acetohydrazide], for which the “toxicity in CEM cells (in words)” value with CEM cells is reported as “no toxicity”. In addition, the IC50 at 5 day (in data set [1]; in data set [2]; in “in vitro”) was > 100 µM in each case. In addition, the “toxicity in primary human PBM cells (in words)” value in the data set on primary human PBM cells is “no toxicity”. Further, in the data set with VERO cells, the “toxicity in VERO cells (in words)” value is on record as “no toxicity”.

For `CC(=NNC(=O)CN1c2c(-c3ccccc3)n[nH]c2-c2ccccc2S1(=O)=O)c1cc(Cl)sc1Cl` [5i, N′-(1-(2,5-dichlorothiophen-3-yl)ethylidene)-2-(5,5-dioxido-3-phenylbenzo[e]pyrazolo[4,3-c][1,2]thiazin-4(1H)-yl)acetohydrazide], the “toxicity in CEM cells (in words)” value with CEM cells is “toxic”. Moreover, the IC50 (in general, the concentration at which inhibition is half-maximal) at 5 day was 12.2 µM in data set [1], 38.8 µM in data set [2] and 14.4 µM in “in vitro”. In addition, the “toxicity in primary human PBM cells (in words)” value in the data set with primary human PBM cells is “toxic”. Also, the “toxicity in VERO cells (in words)” value in the data set with VERO cells is listed as “toxic”.
